In this experiment the target is T1, EP4 (Homo sapiens, UniProt P35408).
T1 construct: expressed in transfected cells; membranes prepared by differential centrifugation
The experiment in a line: Prostanoid receptor binding assay (radioligand displacement binding assay). Here is the method:
Prostanoid receptor cDNAs corresponding to full length coding sequences are subcloned into the appropriate sites of mammalian expression vectors and transfected into HEK 293(ebna) cells. HEK 293(ebna) cells expressing the individual cDNAs are grown under selection and individual colonies are isolated after 2-3 weeks of growth using the cloning ring method and subsequently expanded into clonal cell lines.
Transfected HEK 293(ebna) cells are maintained in culture, harvested and membranes are prepared by differential centrifugation, following lysis of the cells in the presence of protease inhibitors, for use in receptor binding assays. Prostanoid receptor binding assays (for DP1, DP2 (CRTH2), EP1, EP2, EP3-III, EP4, FP, IP, and TP) are performed in 10 mM MES/KOH (pH 6.0) (EPs, FP and TP) or 10 mM HEPES/KOH (pH 7.4) (DPs and IP), containing 1 mM EDTA, 2.5-30 mM divalent cation and the appropriate radio-ligand. Synthetic compounds are added in DMSO which is kept constant at 1% (v/v) in all incubations. The reaction is initiated by addition of membrane protein. Non-specific binding is determined in the presence of 10 μM of the corresponding non-radioactive prostanoid. Incubations are conducted for 60-120 min at room temperature or 30° C. and terminated by rapid filtration. Specific binding is calculated by subtracting non specific binding from total binding. The residual specific binding at each ligand concentration is calculated and expressed as a function of ligand concentration in order to construct sigmoidal concentration-response curves. The binding affinity of the compounds is determined by calculating the equilibrium inhibition constant (Ki) from the equation Ki=InPt/1+[radio-ligand]/Kd where Kd is the equilibrium dissociation constant for the radio-ligand:receptor interaction and InPt is the inflection point of the dose-response curves.
Abramovitz, M. et al., Biochem, Biophys. Acta, 2000, 1483, pp. 285.
Background: Displacement assays read how much labelled ligand stays bound in the presence of the test substance.

[1] abbreviates: column marked X when IC50 between 1 and 5, read-out: IC50 (nm) 1 < X < 5.
Where [2] appears, read: radioligand displacement binding assay, read-out: IC50.
Setting [3] is: column marked X when IC50 < 1, read-out: IC50 (nm) X < 1.

Read-outs that look alike come from different tables or passages of the source.

A word on the IC50: it is the point on the concentration scale where inhibition reaches its midpoint.

T1 sequence (P35408 whole entry): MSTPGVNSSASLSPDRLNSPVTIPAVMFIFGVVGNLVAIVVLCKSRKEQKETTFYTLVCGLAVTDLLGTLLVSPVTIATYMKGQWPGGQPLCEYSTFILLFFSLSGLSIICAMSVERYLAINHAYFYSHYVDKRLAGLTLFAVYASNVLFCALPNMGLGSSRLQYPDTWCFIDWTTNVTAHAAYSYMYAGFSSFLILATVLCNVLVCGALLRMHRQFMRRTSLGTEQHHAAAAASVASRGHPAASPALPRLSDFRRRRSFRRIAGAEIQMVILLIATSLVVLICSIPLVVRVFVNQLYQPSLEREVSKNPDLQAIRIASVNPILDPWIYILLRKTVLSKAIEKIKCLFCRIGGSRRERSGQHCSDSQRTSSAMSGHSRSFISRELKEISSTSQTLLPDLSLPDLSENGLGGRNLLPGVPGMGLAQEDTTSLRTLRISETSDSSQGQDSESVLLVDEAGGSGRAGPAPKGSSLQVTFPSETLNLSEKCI

With `CN1CCc2c(n(-c3ccc(CC4(NC(=O)NS(=O)(=O)c5ccc(Cl)cc5)CC4)cc3)c3ccc(-c4ccccc4)cc23)C1=O` [Example 1-1, 4-chloro-N-[({1-[4-(2-methyl-1-oxo-6-phenyl-1,2,3,4-tetrahydro-9H-beta-carbolin-9-yl)benzyl]cyclopropyl}amino)carbonyl]benzenesulfonamide], the IC50 was 1 to 5 nM under setting [1] and 1 to 5 nM under setting [2].

Consider `Cc1ccc(S(=O)(=O)NC(=O)NCCc2ccc(-n3c4c(c5c(C)cc(C)cc53)CCN(C)C4=O)cc2)cc1` [Example 1-2, 4-methyl-N-[({2-[4-(2,5,7-trimethyl-1-oxo-1,2,3,4-tetrahydro-9H-beta-carbolin-9-yl)phenyl]ethyl}amino)carbonyl]benzenesulfonamide], for which the IC50 under setting [3] is under 1 nM.

In the case of `CN1CCc2c(n(-c3ccc(CCNC(=O)NS(=O)(=O)c4ccc(Cl)cc4)cc3)c3cc(Cl)cc(Cl)c23)C1=O` [Example 1-3, 4-chloro-N-[({2-[4-(5,7-dichloro-2-methyl-1-oxo-1,2,3,4-tetrahydro-9H-beta-carbolin-9-yl)phenyl]ethyl}amino)carbonyl]benzenesulfonamide], the IC50 under setting [3] is under 1 nM.

In the case of `CN1CCc2c(n(-c3ccc(CCNC(=O)NS(=O)(=O)c4ccc(Cl)cc4)cc3)c3ccc(Cl)cc23)C1=O` [Example 1-4, 4-chloro-N-[({2-[4-(6-chloro-2-methyl-1-oxo-1,2,3,4-tetrahydro-9H-beta-carbolin-9-yl)phenyl]ethyl}amino)carbonyl]benzenesulfonamide], the IC50 under setting [3] is under 1 nM.

Regarding `CN1CCc2c(n(-c3ccc(CCNC(=O)NS(=O)(=O)c4ccc(Cl)cc4)cc3)c3ccc(Br)cc23)C1=O` [Example 1-5, N-[({2-[4-(6-bromo-2-methyl-1-oxo-1,2,3,4-tetrahydro-9H-beta-carbolin-9-yl)phenyl]ethyl}amino)carbonyl]-4-chlorobenzenesulfonamide], the IC50 under setting [3] was under 1 nM.

Consider `CCN1CCc2c(n(-c3ccc(CCNC(=O)NS(=O)(=O)c4ccc(Cl)cc4)cc3)c3cc(Cl)cc(Cl)c23)C1=O` [Example 1-6, 4-chloro-N-[({2-[4-(5,7-dichloro-2-ethyl-1-oxo-1,2,3,4-tetrahydro-9H-beta-carbolin-9-yl)phenyl]ethyl}amino)carbonyl]benzenesulfonamide], for which, under setting [3], the IC50 is under 1 nM.

With `O=C(NCCc1ccc(-n2c3c(c4c(Cl)cc(Cl)cc42)CCN(CC2CC2)C3=O)cc1)NS(=O)(=O)c1ccc(Cl)cc1` [Example 1-7, 4-chloro-N-{[(2-{4-[5,7-dichloro-2-(cyclopropylmethyl)-1-oxo-1,2,3,4-tetrahydro-9H-beta-carbolin-9-yl]phenyl}ethyl)amino]carbonyl}benzenesulfonamide], the IC50 reads like this: under setting [1], 1 to 5 nM; under setting [2], 1 to 5 nM.

Consider `CN1CCc2c(n(-c3ccc(CCNC(=O)NS(=O)(=O)c4ccc(Cl)cc4)cc3)c3ccc(-c4ccccc4)cc23)C1=O` [Example 1-8, 4-chloro-N-[({2-[4-(2-methyl-1-oxo-6-phenyl-1,2,3,4-tetrahydro-9H-beta-carbolin-9-yl)phenyl]ethyl}amino)carbonyl]benzenesulfonamide], for which, under setting [3], the IC50 is under 1 nM.

Take `O=C(NCCc1ccc(-n2c3c(c4c(Cl)cc(Cl)cc42)CCN(c2ccccc2)C3=O)cc1)NS(=O)(=O)c1ccc(Cl)cc1` [Example 1-9, 4-chloro-N-[({2-[4-(5,7-dichloro-1-oxo-2-phenyl-1,2,3,4-tetrahydro-9H-beta-carbolin-9-yl)phenyl]ethyl}amino)carbonyl]benzenesulfonamide]: the half-inhibitory concentration (IC50) (column marked X when IC50 > 5, read-out: IC50 (nm) X > 5) was over 5 nM and the IC50 under setting [2] is over 5 nM.

In the case of `CN1CCc2c(n(-c3ccc(CCNC(=O)NS(=O)(=O)c4ccc(Cl)cc4)cc3)c3cc(Cl)c(Cl)cc23)C1=O` [Example 1-10, 4-chloro-N-[({2-[4-(6,7-dichloro-2-methyl-1-oxo-1,2,3,4-tetrahydro-9H-beta-carbolin-9-yl)phenyl]ethyl}amino)carbonyl]benzenesulfonamide], the IC50 under setting [3] is under 1 nM.

These data come from US8685999B2, “Beta carboline sulphonylurea derivatives as EP4 receptor antagonists” (Merck Sharp & Dohme Corp., priority 2008, dated 2014).
